2 molecules from PMC11865921, “Effect of mono-guanidine-like derivatives on platelet aggregation and tumour cell induced platelet aggregation” (RSC Medicinal Chemistry, 2025) can be followed below.

Read-outs that look alike come from different tables or passages of the source.

One experiment addresses T1, sigma σ1 receptor.
T1 construct: gene SIGMAR1; PDSP has often used guinea pig or rat tissue for sigma1
Briefly: PDSP radioligand competition binding. From the text: PDSP radioligand competition binding on sigma σ1 receptor
On the technique in general: Displacement assays read how much labelled ligand stays bound in the presence of the test substance.

A further experiment deals with T2, sigma σ2 receptor.
T2 construct: gene TMEM97; PDSP has often used rat PC12 cells or guinea pig tissue for sigma2
Briefly: PDSP radioligand competition binding. The note with it: read-out: [drawing 1]. From the text:
PDSP radioligand competition binding on sigma σ2 receptor

For the molecule `c1cc2c(nc1NC1=NCCN1)CCCC2` [compound 2], the Ki on sigma σ1 receptor (read-out: [drawing 2]) was determined as 179 nM.

With `N=C(N)Nc1ccc2c(n1)CCCC2` [compound 1], the Ki on sigma σ1 receptor (read-out: [drawing 1]) is 266 nM; on sigma σ2 receptor, 547 nM.
